How the values were obtained:
[1] = molecular target: Vascular endothelial growth factor receptor 2 (Homo sapiens, UniProt P35968)
[2] = molecular target: Platelet-derived growth factor receptor beta (Homo sapiens, UniProt P09619)
[3] = molecular target: Fibroblast growth factor receptor 1 (Homo sapiens, UniProt P11362); experiment: Inhibitory activity against Fibroblast growth factor receptor 1
[4] = molecular target: Epidermal growth factor receptor (Homo sapiens, UniProt P00533)
Sequence of Epidermal growth factor receptor (P00533 whole entry): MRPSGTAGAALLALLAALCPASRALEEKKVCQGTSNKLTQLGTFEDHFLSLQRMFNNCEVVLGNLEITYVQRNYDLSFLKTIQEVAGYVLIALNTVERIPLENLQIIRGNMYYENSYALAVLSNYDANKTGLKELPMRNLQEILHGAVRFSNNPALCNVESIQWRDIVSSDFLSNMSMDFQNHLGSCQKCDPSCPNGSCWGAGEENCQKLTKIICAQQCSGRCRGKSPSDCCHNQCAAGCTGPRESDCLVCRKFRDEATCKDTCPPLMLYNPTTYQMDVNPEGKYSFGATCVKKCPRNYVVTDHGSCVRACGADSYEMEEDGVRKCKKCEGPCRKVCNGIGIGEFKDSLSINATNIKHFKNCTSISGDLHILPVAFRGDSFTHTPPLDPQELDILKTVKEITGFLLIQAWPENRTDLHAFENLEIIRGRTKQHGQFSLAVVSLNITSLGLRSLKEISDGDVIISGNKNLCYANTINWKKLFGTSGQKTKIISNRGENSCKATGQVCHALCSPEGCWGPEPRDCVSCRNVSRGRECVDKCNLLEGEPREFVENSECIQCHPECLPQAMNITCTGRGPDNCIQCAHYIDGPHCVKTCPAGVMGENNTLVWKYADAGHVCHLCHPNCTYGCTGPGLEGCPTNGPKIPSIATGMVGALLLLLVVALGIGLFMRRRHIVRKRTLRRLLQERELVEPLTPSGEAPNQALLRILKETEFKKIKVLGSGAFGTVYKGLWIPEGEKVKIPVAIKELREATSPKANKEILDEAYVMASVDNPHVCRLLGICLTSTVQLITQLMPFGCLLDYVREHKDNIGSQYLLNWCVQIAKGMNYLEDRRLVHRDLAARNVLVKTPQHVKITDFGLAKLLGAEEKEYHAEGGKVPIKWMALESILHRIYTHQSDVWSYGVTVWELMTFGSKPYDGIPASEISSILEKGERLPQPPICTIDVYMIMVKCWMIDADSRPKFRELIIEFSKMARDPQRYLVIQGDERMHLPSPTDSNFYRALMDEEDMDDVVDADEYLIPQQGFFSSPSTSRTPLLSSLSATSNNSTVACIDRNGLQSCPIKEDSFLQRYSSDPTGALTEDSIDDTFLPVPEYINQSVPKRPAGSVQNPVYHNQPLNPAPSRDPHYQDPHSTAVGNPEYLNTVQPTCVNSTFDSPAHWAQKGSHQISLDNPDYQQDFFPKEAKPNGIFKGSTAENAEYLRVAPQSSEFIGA

Sequence of Platelet-derived growth factor receptor beta (P09619 whole entry): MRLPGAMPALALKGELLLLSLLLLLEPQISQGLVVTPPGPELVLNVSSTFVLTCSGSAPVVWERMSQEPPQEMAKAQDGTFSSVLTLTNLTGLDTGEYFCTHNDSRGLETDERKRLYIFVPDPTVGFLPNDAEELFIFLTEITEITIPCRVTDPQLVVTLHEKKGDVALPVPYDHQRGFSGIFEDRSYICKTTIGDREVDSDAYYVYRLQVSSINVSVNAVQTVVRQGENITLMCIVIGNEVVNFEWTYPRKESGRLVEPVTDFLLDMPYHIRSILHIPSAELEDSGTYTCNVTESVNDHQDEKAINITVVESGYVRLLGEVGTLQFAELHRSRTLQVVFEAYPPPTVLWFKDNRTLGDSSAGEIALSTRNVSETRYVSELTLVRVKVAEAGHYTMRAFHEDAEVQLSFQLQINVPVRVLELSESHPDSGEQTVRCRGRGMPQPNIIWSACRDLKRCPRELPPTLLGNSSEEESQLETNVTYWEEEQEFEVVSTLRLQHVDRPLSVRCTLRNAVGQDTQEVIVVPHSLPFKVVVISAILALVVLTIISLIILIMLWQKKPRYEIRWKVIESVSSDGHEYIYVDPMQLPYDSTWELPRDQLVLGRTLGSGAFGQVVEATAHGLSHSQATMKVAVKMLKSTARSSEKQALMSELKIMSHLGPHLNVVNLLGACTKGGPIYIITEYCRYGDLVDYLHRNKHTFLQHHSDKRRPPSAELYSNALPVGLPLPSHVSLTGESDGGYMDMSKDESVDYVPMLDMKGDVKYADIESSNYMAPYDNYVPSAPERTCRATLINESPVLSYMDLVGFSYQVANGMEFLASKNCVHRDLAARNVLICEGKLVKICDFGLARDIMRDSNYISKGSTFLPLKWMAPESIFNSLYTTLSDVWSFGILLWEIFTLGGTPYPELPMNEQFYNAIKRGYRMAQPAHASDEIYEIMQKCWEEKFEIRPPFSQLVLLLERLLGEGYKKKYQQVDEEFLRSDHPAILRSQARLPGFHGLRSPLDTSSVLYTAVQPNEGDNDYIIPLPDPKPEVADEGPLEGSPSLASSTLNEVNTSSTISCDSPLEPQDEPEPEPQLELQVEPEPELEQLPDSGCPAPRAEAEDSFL
Sequence of Fibroblast growth factor receptor 1 (P11362 whole entry): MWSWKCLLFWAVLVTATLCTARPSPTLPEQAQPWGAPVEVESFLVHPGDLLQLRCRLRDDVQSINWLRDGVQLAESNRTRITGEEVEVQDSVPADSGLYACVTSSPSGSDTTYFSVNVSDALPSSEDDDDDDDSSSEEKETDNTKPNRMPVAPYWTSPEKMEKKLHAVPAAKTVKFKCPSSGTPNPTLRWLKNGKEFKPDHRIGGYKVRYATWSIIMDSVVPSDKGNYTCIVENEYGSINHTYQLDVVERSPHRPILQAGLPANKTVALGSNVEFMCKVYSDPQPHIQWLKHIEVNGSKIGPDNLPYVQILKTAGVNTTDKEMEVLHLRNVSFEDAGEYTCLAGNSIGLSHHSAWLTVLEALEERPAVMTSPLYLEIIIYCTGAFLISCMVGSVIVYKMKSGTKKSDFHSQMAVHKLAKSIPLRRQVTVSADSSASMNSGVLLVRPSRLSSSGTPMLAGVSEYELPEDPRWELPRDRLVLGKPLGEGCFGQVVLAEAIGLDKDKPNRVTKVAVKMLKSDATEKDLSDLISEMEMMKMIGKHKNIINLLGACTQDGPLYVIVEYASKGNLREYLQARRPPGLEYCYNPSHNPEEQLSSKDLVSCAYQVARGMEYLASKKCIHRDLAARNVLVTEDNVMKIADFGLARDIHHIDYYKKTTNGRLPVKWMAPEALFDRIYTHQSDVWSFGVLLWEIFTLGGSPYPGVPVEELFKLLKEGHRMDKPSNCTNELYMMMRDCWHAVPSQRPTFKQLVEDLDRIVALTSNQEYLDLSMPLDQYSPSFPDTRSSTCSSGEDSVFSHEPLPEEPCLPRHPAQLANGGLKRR
Sequence of Vascular endothelial growth factor receptor 2 (P35968 whole entry): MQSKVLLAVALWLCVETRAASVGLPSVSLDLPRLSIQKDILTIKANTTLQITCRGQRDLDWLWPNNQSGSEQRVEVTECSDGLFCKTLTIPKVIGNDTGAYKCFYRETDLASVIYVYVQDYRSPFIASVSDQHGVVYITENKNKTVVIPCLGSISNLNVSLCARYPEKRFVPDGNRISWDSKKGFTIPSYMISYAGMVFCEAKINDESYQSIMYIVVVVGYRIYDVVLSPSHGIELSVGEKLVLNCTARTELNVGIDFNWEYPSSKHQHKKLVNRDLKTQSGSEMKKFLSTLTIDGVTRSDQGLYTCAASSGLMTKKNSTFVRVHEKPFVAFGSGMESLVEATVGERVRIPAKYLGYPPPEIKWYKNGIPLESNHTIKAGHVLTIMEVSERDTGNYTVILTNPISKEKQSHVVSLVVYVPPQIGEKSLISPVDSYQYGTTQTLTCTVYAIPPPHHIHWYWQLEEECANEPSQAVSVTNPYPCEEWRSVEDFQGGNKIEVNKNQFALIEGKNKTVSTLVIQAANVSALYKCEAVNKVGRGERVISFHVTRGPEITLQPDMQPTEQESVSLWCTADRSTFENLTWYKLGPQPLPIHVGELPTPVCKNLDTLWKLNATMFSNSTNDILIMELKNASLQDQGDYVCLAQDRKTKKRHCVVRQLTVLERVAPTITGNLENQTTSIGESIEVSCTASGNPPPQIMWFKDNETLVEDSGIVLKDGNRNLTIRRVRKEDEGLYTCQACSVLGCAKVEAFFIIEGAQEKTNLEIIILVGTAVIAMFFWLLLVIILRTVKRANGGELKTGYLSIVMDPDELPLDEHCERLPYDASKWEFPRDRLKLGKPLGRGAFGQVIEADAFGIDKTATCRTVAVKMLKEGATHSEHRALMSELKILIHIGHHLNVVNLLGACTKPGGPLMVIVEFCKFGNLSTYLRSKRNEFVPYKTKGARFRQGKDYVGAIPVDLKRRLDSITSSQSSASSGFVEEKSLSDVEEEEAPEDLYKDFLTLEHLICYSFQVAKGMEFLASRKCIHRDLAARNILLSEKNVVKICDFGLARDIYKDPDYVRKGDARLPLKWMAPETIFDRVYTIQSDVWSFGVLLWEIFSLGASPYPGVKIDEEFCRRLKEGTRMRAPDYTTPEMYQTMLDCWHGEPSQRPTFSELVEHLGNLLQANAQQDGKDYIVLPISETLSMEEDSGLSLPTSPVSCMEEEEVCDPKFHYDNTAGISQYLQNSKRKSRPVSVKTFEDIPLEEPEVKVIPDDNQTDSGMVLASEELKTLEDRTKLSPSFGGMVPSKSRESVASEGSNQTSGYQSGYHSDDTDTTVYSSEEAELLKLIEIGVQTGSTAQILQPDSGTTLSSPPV

Row | Compound | IC50 [1] | IC50 [2] | IC50 [3] | IC50 [4]
1 | Cc1[nH]c(/C=C2\C(=O)Nc3ccc(S(N)(=O)=O)cc32)c(C)c1CCC(=O)O | 1260 nM | 1530 nM | 280 nM | 
2 | COc1ccc(-c2ccc3c(c2)NC(=O)/C3=C\c2[nH]c(C)c(CCC(=O)O)c2C)cc1 | 520 nM | 1000 nM | 5760 nM | > 100000 nM
3 | Cc1c[nH]c(/C=C2\C(=O)Nc3ccc(Br)cc32)c1CCC(=O)O |  |  |  | > 100000 nM
4 | Cc1c[nH]c(/C=C2\C(=O)Nc3cccc(C)c32)c1CCC(=O)O |  |  |  | > 100000 nM
5 | Cc1[nH]c(/C=C2\C(=O)Nc3cc(-c4ccccc4)ccc32)c(C)c1CCC(=O)O | 140 nM | 10 nM | 2290 nM | > 100000 nM
6 | COc1cccc(-c2ccc3c(c2)NC(=O)/C3=C\c2[nH]c(C)c(CCC(=O)O)c2C)c1 | 300 nM | 100 nM | 1400 nM | > 100000 nM
7 | Cc1[nH]c(/C=C2\C(=O)Nc3ccc(Br)cc32)c(C)c1CCC(=O)O | 1730 nM | 60 nM | 2050 nM | > 100000 nM
8 | COc1ccc2c(c1)NC(=O)/C2=C\c1[nH]c(C)c(CCC(=O)O)c1C | 8290 nM | 550 nM | 5400 nM | > 100000 nM
9 | COc1ccc(-c2ccc3c(c2)NC(=O)/C3=C\c2[nH]cc(CCC(=O)O)c2C)cc1 | 450 nM | 3080 nM | 1540 nM | > 100000 nM
10 | Cc1[nH]c(/C=C2\C(=O)Nc3ccc(C(=O)O)cc32)c(C)c1CCC(=O)O | 70 nM | 1210 nM | 280 nM | > 100000 nM
11 | CCOc1cccc(-c2ccc3c(c2)NC(=O)/C3=C\c2[nH]cc(C)c2CCC(=O)O)c1 |  |  | 4500 nM | > 100000 nM
12 | COc1ccccc1-c1ccc2c(c1)NC(=O)/C2=C\c1[nH]c(C)c(CCC(=O)O)c1C | 4370 nM | 2220 nM | 7330 nM | > 100000 nM
13 | COc1ccccc1-c1ccc2c(c1)NC(=O)/C2=C\c1[nH]cc(CCC(=O)O)c1C | 1470 nM | 1420 nM | 2130 nM | > 100000 nM
14 | COc1cccc(-c2ccc3c(c2)NC(=O)/C3=C\c2[nH]cc(C)c2CCC(=O)O)c1 |  | 450 nM | 1200 nM | > 100000 nM

Results, then the molecule that gave them:

Row | IC50 [1] | IC50 [2] | IC50 [3] | IC50 [4] | Compound
15 | 240 nM | 4190 nM | 770 nM | > 100000 nM | Cc1c(CCC(=O)O)c[nH]c1/C=C1\C(=O)Nc2ccc(C(=O)O)cc21
16 | 20 nM | 510 nM | 30 nM | > 100000 nM | Cc1c[nH]c(/C=C2\C(=O)Nc3ccccc32)c1CCC(=O)O
17 | 1350 nM | 140 nM | 3890 nM | > 100000 nM | COc1ccc2c(c1)NC(=O)/C2=C\c1[nH]cc(CCC(=O)O)c1C
18 | 920 nM | 5980 nM | 460 nM | > 100000 nM | Cc1c(CCC(=O)O)c[nH]c1/C=C1\C(=O)Nc2ccc(S(N)(=O)=O)cc21
19 | 90 nM | 170 nM | 360 nM | > 100000 nM | COc1cccc(-c2ccc3c(c2)NC(=O)/C3=C\c2[nH]cc(CCC(=O)O)c2C)c1
20 | 2140 nM | 140 nM | 3680 nM | > 100000 nM | Cc1c(CCC(=O)O)c[nH]c1/C=C1\C(=O)Nc2ccccc21
21 |  | 60 nM |  |  | Cc1[nH]c(/C=C2\C(=O)Nc3ccccc32)c(C)c1CCC(=O)O [ORANTINIB]
22 | 300 nM | 160 nM | 1050 nM | > 100000 nM | Cc1c(CCC(=O)O)c[nH]c1/C=C1\C(=O)Nc2cc(-c3ccccc3)ccc21

— ChEMBL document CHEMBL1132535, “Design, synthesis, and evaluations of substituted 3-[(3- or 4-carboxyethylpyrrol-2-yl)methylidenyl]indolin-2-ones as inhibitors of VEGF, FGF, and PDGF receptor tyrosine kinases” (J Med Chem, 1999)
